Read-outs that look alike come from different tables or passages of the source.
What was measured:
DU-145 [1] = experiment: Cell growth inhibition assay (MTT, day 0 subtracted); type: cell-based, human; conditions: 72 h, read-out: In vitro Growth Inhibitory Concentration (GI50)
Description: (§1) Various cancer cells were used to screen anticancer activity of newly synthesized compounds. Lung (A549 and NCI-H460), colon (HCT-15 and HT-29), prostate (DU-145) cancer cells maintained in RPMI-1640 media while normal lung fibroblasts cell line (HFL-1) were maintained in F-12 k medium supplemented with 10% fetal bovine serum (FBS) with 1% antibiotic-antimycotic solution (Sigma). Cells were maintained in 5% CO2 with 98% relative humidity at 37 °C in incubator. When 80-90% of confluency is reached, they were sub-cultured using 0.25% trypsin/1 mM EDTA solution for further passage. The compounds in this series were dissolved in DMSO (1 %) to prepare the stock solution of 10 mM. Further dilutions were made accordingly with respective media to obtain the required concentrations.
(§2) Briefly, the cells were seeded on to a 96-well plate in 100 µl of medium. Following 24 h MTT reagent was added in few wells and day 0 absorbance was analyzed, and then cells were treated with compounds and incubated for an additional 72 h. After the treatment, 100 µl of MTT (0.5 mg/ml) was added and incubated at 37 °C for 4 h. Then MTT reagent was suctioned, the insoluble formazan crystals were dissolved in DMSO and formazan product formed is measured at 570 nm wavelength. The day 0 absorbance was subtracted from the 72 h incubated plates and data were plotted as a percentage of untreated control (Dai et al., 2011).

[2] = tested on: HFL-1 normal lung fibroblasts; experiment: as above; type: cell-based, human; conditions: read-out: In vitro Growth Inhibitory Concentration (GI50)
Description: as §1, §2

NCI-H460 [3] = experiment: as above; type: cell-based, human; conditions: 72 h, read-out: In vitro Growth Inhibitory Concentration (GI50)
Description: as §1, §2

HT-29 [4] = experiment: as above; type: cell-based, human; conditions: 72 h, read-out: In vitro Growth Inhibitory Concentration (GI50)
Description: as §1, §2

A549 [5] = experiment: as above; type: cell-based, human; conditions: 72 h, read-out: In vitro Growth Inhibitory Concentration (GI50)
Description: as §1, §2

HCT-15 [6] = experiment: as above; type: cell-based, human; conditions: 72 h, read-out: In vitro Growth Inhibitory Concentration (GI50)
Description: as §1, §2

DU-145 [7] = experiment: MTT cytotoxicity assay; type: cell-based, human; conditions: DU-145 prostate cancer, 72 h, read-out: In vitro Inhibitory Concentration (IC50)
Description: as §1
(§3) MTT assay measures the reduction of MTT (3-(4,5-dimethylthiazol- 2-yl)-2,5-diphenyl tetrazolium bromide) by mitochondrial succinate dehydrogenase enzyme to insoluble formazan crystals. Since reduction of MTT occurs only in metabolically active cells, the level of activity is the measure of the viability of the cells.(Pordeli et al., 2017). Briefly, cells were plated in 96-well plates at a density of 3,000 to 6,000 cells per well in 100 µl of complete medium and allowed to grow overnight. Then the cells were treated with different concentrations of the synthesized compounds and incubated for 72 h. After the treatment, 100 µl of MTT (0.5 mg/ml) was added and incubated at 37 °C for 4 h. Then MTT reagent was aspirated and formazan crystals formed were dissolved by the addition of 200 µL of DMSO for 20 min at 37 °C. The formazan product quantity was measured by using a spectrophotometric microtiter plate reader (Spectra Max, M4 Molecular devices, USA) at 570 nm wavelength(Nekkanti et al., 2017).

[8] = tested on: HFL-1 normal lung fibroblasts; experiment: MTT cytotoxicity assay; type: cell-based, human; conditions: read-out: In vitro Inhibitory Concentration (IC50)
Description: as §1, §3

NCI-H460 [9] = experiment: MTT cytotoxicity assay; type: cell-based, human; conditions: NCI-H460 lung carcinoma, 72 h, read-out: In vitro Inhibitory Concentration (IC50)
Description: as §1, §3

HT-29 [10] = experiment: MTT cytotoxicity assay; type: cell-based, human; conditions: HT-29 colorectal cancer, 72 h, read-out: In vitro Inhibitory Concentration (IC50)
Description: as §1, §3

A549 [11] = experiment: MTT cytotoxicity assay; type: cell-based, human; conditions: A549 adenocarcinoma (lung), MTT, 72 h, read-out: In vitro Inhibitory Concentration (IC50)
Description: as §1, §3

HCT-15 [12] = experiment: MTT cytotoxicity assay; type: cell-based, human; conditions: HCT-15 colon cancer, 72 h, read-out: In vitro Inhibitory Concentration (IC50)
Description: as §1, §3

Compound	GI50 (DU-145 [1])	GI50 ([2]; 72 h)	GI50 (NCI-H460 [3])	GI50 (HT-29 [4])	GI50 (A549 [5])	GI50 (HCT-15 [6])	IC50 (DU-145 [7])	GI50 (DU-145 [1]; Homo sapiens)	GI50 ([2]; Homo sapiens, HFL1, 72 h)	GI50 (NCI-H460 [3]; Homo sapiens)	GI50 (HT-29 [4]; Homo sapiens)	GI50 (A549 [5]; Homo sapiens)	GI50 (HCT-15 [6]; Homo sapiens)	melting point	IC50 (DU-145 [7]; Homo sapiens)	IC50 ([8]; Homo sapiens, HFL1, 72 h)	IC50 (NCI-H460 [9]; Homo sapiens)	IC50 (HT-29 [10]; Homo sapiens)	IC50 (A549 [11]; Homo sapiens)	IC50 (HCT-15 [12]; Homo sapiens)	further results
Cc1ccc(C2C3=C(CCCC3)N=C3C=CC=CN32)cc1 (stereo not drawn) [Compound 4e]	17.7 ± 0.13 µM	68.6 ± 3.2 µM	20.8 ± 1.82 µM	15.8 ± 0.97 µM	29.5 ± 0.79 µM	23.44 ± 0.2 µM	23.2 ± 0.25 µM														IC50 ([8]; 72 h): 85 ± 3.8 µM; IC50 (NCI-H460 [9]): 43.2 ± 2.58 µM; IC50 (HT-29 [10]): 39.5 ± 1.4 µM; IC50 (A549 [11]): 43.1 ± 2.43 µM; IC50 (HCT-15 [12]): 40.9 ± 0.55 µM
ClC1=CN2C(=NC3=C(CCCC3)C2c2ccc(Cl)cc2)C=C1 (stereo not drawn) [Compound 4f, 8-Chloro-11-(4-chlorophenyl)-2,3,4, 11-tetrahydro-1H-pyrido [2,1-b] quinazoline]								11.3 ± 0.34 µM	11.6 ± 0.17 µM	9.62 ± 0.41 µM	11.43 ± 0.06 µM	8.64 ± 0.4 µM	12.9 ± 0.73 µM	131 to 132 °C	16.08 ± 0.14 µM	15.2 ± 0.3 µM	12.6 ± 0.35 µM	15.4 ± 0.11 µM	12.8 ± 1.5 µM	19.3 ± 1.16 µM	
11-(4-trimethoxyphenyl)-2, 3, 4, 11-tetrahydro-1H-pyrido[2,1-b] quinazoline [Compound 4h]	> 30 µM	> 30 µM	> 30 µM	> 30 µM	> 30 µM	> 30 µM	> 30 µM														IC50 ([8]; 72 h): > 30 µM; IC50 (NCI-H460 [9]): > 30 µM; IC50 (HT-29 [10]): > 30 µM; IC50 (A549 [11]): > 30 µM; IC50 (HCT-15 [12]): > 30 µM
Clc1ccc(C2C3=C(CCCC3)N=C3C=CC=CN32)cc1 (stereo not drawn) [Compound 4b, 11-(4-Chlorophenyl)-2,3,4, 11-tetrahydro-IH-pyrido [2,1-b] quinazoline]	> 30 µM	> 30 µM	> 30 µM	> 30 µM	> 30 µM	> 30 µM	> 30 µM														IC50 ([8]; 72 h): > 30 µM; IC50 (NCI-H460 [9]): > 30 µM; IC50 (HT-29 [10]): > 30 µM; IC50 (A549 [11]): > 30 µM; IC50 (HCT-15 [12]): > 30 µM
C1=CC2=NC3=C(CCCC3)C(c3ccccc3)N2C=C1 (stereo not drawn) [Compound 4a, 11-Phenyl-2,3,4, 11-tetrahydro-1H-pyrido [2,1-b] quinazoline]								> 30 µM	> 30 µM	> 30 µM	> 30 µM	> 30 µM	> 30 µM	154 to 156 °C	> 30 µM	> 30 µM	> 30 µM	> 30 µM	> 30 µM	> 30 µM	
COc1ccc(C2C3=C(CCCC3)N=C3C=CC=CN32)cc1 (stereo not drawn) [Compound 4d, 11-(4-Methoxyphenyl)-2,3,4, 11-tetrahydro-1H-pyrido[2,1-b]quinazoline]								> 30 µM	> 30 µM	> 30 µM	> 30 µM	> 30 µM	> 30 µM	88 to 89 °C	> 30 µM	> 30 µM	> 30 µM	> 30 µM	> 30 µM	> 30 µM	
O=[N+]([O-])c1ccc(C2C3=C(CCCC3)N=C3C=CC=CN32)cc1 (stereo not drawn) [Compound 4c, 11-(4-Nitrophenyl)-2,3,4, 11-tetrahydro-1H-pyrido[2,1-b]quinazoline]								> 30 µM	> 30 µM	> 30 µM	> 30 µM	> 30 µM	> 30 µM	150 to 151 °C	> 30 µM	> 30 µM	> 30 µM	> 30 µM	> 30 µM	> 30 µM	
C1=CC2=NC3=C(CCCC3)C(c3c[nH]c4ccccc34)N2C=C1 (stereo not drawn) [Compound 4j, 11-(1H-indol-3-yl)-2,3,4, 11-tetrahydro-1H-pyrido [2,1-b]quinazoline]								8.1 ± 0.1 µM	7.67 ± 0.22 µM	7.1 ± 0.19 µM	4.4 ± 0.2 µM	5.79 ± 0.14 µM	7.81 ± 0.65 µM	180 to 182 °C	12.6 ± 0.23 µM	9.31 ± 0.32 µM	9.27 ± 0.54 µM	7.25 ± 0.38 µM	8.98 ± 0.32 µM	10.9 ± 0.4 µM	
Fc1ccc(C2C3=C(CCCC3)N=C3C=CC(Cl)=CN32)cc1 (stereo not drawn) [Compound 4g, 8-chloro-11-(4-fluorophenyl)-2,3,4,11-tetrahydro-1H-pyrido[2,1-b]quinazoline]								7.37 ± 2.5 µM	41.7 ± 0.98 µM	17.5 ± 2.05 µM	20.8 ± 3.74 µM	9.23 ± 0.93 µM	10 ± 0.97 µM	88 to 93 °C	32.9 ± 3.77 µM	63.1 ± 1.79 µM	41.5 ± 1.27 µM	41.3 ± 1.43 µM	25.5 ± 3.98 µM	28.6 ± 1.96 µM	

— article PMC7332124, “Design, One Pot Synthesis and Molecular Docking Studies of Substituted-1H-Pyrido[2,1-b] Quinazolines as Apoptosis-Inducing Anticancer Agents” (Asian Pacific Journal of Cancer Prevention : APJCP, 2020)
